Drawing on US10316035B2, “Triazolopyridine inhibitors of myeloperoxidase” (BRISTOL-MYERS SQUIBB COMPANY, priority 2015, dated 2019), this text covers IC50 for 32 compounds.

The target of this test is T1, myeloperoxidase (MPO) (Homo sapiens, UniProt P05164).
T1 sequence (P05164 49-745): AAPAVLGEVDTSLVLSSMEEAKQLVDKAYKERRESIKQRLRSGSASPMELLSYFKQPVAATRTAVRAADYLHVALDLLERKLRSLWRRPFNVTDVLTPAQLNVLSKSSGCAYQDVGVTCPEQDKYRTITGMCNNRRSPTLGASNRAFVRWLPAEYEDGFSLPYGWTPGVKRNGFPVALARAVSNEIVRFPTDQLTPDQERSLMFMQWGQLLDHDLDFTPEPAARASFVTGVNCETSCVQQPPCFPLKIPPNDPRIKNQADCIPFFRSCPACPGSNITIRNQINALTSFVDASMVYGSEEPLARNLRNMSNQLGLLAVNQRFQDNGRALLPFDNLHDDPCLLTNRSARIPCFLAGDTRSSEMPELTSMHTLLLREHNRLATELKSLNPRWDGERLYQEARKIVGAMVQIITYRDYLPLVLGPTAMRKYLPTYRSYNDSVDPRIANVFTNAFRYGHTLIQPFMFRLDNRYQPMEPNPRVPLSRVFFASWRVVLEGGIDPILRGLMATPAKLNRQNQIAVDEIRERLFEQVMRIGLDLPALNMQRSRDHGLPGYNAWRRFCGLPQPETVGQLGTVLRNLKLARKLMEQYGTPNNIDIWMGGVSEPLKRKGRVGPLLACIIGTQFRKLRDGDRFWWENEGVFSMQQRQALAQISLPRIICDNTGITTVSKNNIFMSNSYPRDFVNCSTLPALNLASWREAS
The experiment in a line: MPO peroxidation assay (Amplex Red assay). The test is classed as biochemical. The settings on record: MPO peroxidation, potency range class; read-out: Amplex Red IC50. In a few lines:
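Peroxidase turnover of Amplex Red to fluorescent resorufin (Ex 535/Em 590 nm) was followed for 15 min in 100 mM KPi, pH 7.4, after 10 min room-temperature preincubation of compound with 200 pM enzyme plus 40 nM H2O2. The substrate mix contained 200 μM Amplex Red and 10 mM H2O2. IC50s came from linear-phase rates (180–540 s) fitted with a Hill equation.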
Consider `Nc1cc(OCc2cc(C(=O)N3CCC[C@H]3CO)ccc2Cl)c2nn[nH]c2n1` [Example 179, (S)-(3-((5-amino-3H-[1,2,3]triazolo[4,5-b]pyridin-7-yloxy)methyl)-4-chlorophenyl)(2-(hydroxymethyl)pyrrolidin-1-yl)methanone], for which the 50% inhibitory concentration (IC50) lay within 101 to 999 nM.
In the case of `Nc1cc(OCc2cc(C(=O)N3CCC3)ccc2Cl)c2nn[nH]c2n1` [Example 182, (3-((5-amino-3H-[1,2,3]triazolo [4,5-b]pyridin-7-yloxy)methyl)-4-chlorophenyl)(azetidin-1-yl)methanone], the IC50 was 101 to 999 nM.
For `Nc1cc(OCc2cc(C(=O)N(CCO)Cc3ccccc3)ccc2Cl)c2nn[nH]c2n1` [Example 183, 3-((5-amino-3H-[1,2,3]triazolo [4,5-b]pyridin-7-yloxy)methyl)-N-benzyl-4-chloro-N-(2-hydroxyethyl)benzamide] the value was 101 to 999 nM; for `CCN(CCO)C(=O)c1ccc(Cl)c(COc2cc(N)nc3[nH]nnc23)c1` [Example 184, 3-((5-amino-3H-[1,2,3]triazolo [4,5-b]pyridin-7-yloxy)methyl)-4-chloro-N-ethyl-N-(2-hydroxyethyl) benzamide], 101 to 999 nM; for `CN(C)C(=O)c1ccc(Cl)c(COc2cc(N)nc3[nH]nnc23)c1` [Example 185, 3-((5-amino-3H-[1,2,3]triazolo [4,5-b]pyridin-7-yloxy)methyl)-4-chloro-N,N-dimethylbenzamide], 101 to 999 nM.
Turning to `CNC(=O)CNC(=O)c1ccc(Cl)c(COc2cc(N)nc3[nH]nnc23)c1` [Example 187, 3-((5-amino-3H-[1,2,3]triazolo [4,5-b]pyridin-7-yloxy)methyl)-4-chloro-N-(2-(methylamino)-2-oxoethyl)benzamide], the IC50 was in the range of 101 to 999 nM.
On to `Nc1cc(OCc2cc(C(=O)NC3CC3)ccc2Cl)c2nn[nH]c2n1` [Example 188, 3-((5-amino-3H-[1,2,3]triazolo [4,5-b]pyridin-7-yloxy)methyl)-4-chloro-N-cyclopropylbenzamide], for which the IC50 was 1 to 100 nM.
Regarding `CN(CC(N)=O)C(=O)c1ccc(Cl)c(COc2cc(N)nc3[nH]nnc23)c1` [Example 189, N-(2-amino-2-oxoethyl)-3-((5-amino-3H-[1,2,3]triazolo[4,5-b]pyridin-7-yloxy)methyl)-4-chloro-N-methylbenzamide], the IC50 was 101 to 999 nM.
For `Nc1cc(OCc2cc(C(=O)NCC(F)(F)F)ccc2Cl)c2nn[nH]c2n1` [Example 190, 3-((5-amino-3H-[1,2,3]triazolo [4,5-b]pyridin-7-yloxy)methyl)-4-chloro-N-(2,2,2-trifluoroethyl) benzamide] the value was 1 to 100 nM.
Take `CC(O)CNC(=O)c1ccc(Cl)c(COc2cc(N)nc3[nH]nnc23)c1` (centres unmarked) [Example 191, 3-((5-amino-3H-[1,2,3]triazolo [4,5-b]pyridin-7-yloxy)methyl)-4-chloro-N-(2-hydroxypropyl) benzamide]: the IC50 was 1 to 100 nM.
`Nc1cc(OCc2cc(C(=O)NCc3ccc[nH]c3=O)ccc2Cl)c2nn[nH]c2n1` [Example 192, 3-((5-amino-3H-[1,2,3]triazolo [4,5-b]pyridin-7-yloxy)methyl)-4-chloro-N-((2-oxo-1,2-dihydropyridin-3-yl)methyl) benzamide]: the IC50 lay within 1 to 100 nM.
For `Nc1cc(OCc2cc(C(=O)NC3CCS(=O)(=O)C3)ccc2Cl)c2nn[nH]c2n1` (centres unmarked) [Example 193, 3-((5-amino-3H-[1,2,3]triazolo [4,5-b]pyridin-7-yloxy)methyl)-4-chloro-N-(1,1-dioxidotetrahydrothien-3-yl)benzamide] the value was 101 to 999 nM; for `COC(=O)c1ccc(COc2cc(N)nc3[nH]nnc23)c(Cl)c1` [Example 194, Methyl 4-((5-amino-3H-[1,2,3]triazolo[4,5-b]pyridin-7-yloxy)methyl)-3-chlorobenzoate], 1 to 100 nM; for `Nc1cc(OCc2ccc(C(=O)NCc3ccccc3)cc2Cl)c2nn[nH]c2n1` [Example 196, 4-((5-amino-3H-[1,2,3]triazolo[4,5-b]pyridin-7-yloxy)methyl)-N-benzyl-3-chlorobenzamide], 1 to 100 nM.
Consider `Nc1cc(OCc2ccc(C(=O)NC3CC3)cc2Cl)c2nn[nH]c2n1` [Example 197, 4-((5-amino-3H-[1,2,3]triazolo[4,5-b]pyridin-7-yloxy)methyl)-3-chloro-N-cyclopropylbenzamide], for which the IC50 fell in the range of 101 to 999 nM.
On to `Nc1cc(OCc2ccc(C(=O)NCC3CCCCC3)cc2Cl)c2nn[nH]c2n1` [Example 198, 4-((5-amino-3H-[1,2,3]triazolo[4,5-b]pyridin-7-yloxy)methyl)-3-chloro-N-(cyclohexylmethyl)benzamide], for which the IC50 lay within 101 to 999 nM.
Consider `Nc1cc(OCc2ccc(C(=O)N3CCC[C@H]3CO)cc2Cl)c2nn[nH]c2n1` [Example 199, (S)-(4-((5-amino-3H-[1,2,3]triazolo [4,5-b]pyridin-7-yloxy)methyl)-3-chlorophenyl)(2-(hydroxymethyl)pyrrolidin-1-yl)methanone], for which the IC50 fell in the range of 101 to 999 nM.
Turning to `CC(NC(=O)c1ccc(COc2cc(N)nc3[nH]nnc23)c(Cl)c1)c1ccccc1` (centres unmarked) [Example 201, 4-((5-amino-3H-[1,2,3]triazolo[4,5-b]pyridin-7-yloxy)methyl)-3-chloro-N-(1-phenylethyl)benzamide], the IC50 was in the range of 1 to 100 nM.
Regarding `CN(C)CCNC(=O)c1ccc(COc2cc(N)nc3[nH]nnc23)c(Cl)c1` [Example 202, 4-((5-amino-3H-[1,2,3]triazolo[4,5-b]pyridin-7-yloxy)methyl)-3-chloro-N-(2-(dimethylamino)ethyl) benzamide], the IC50 lay within 1 to 100 nM.
Take `CN(C(=O)c1ccc(COc2cc(N)nc3[nH]nnc23)c(Cl)c1)c1ccccc1` [Example 203, 4-((5-amino-3H-[1,2,3]triazolo[4,5-b]pyridin-7-yloxy)methyl)-3-chloro-N-methyl-N-phenylbenzamide]: the IC50 lay within 1 to 100 nM.
Under `CN(Cc1ccccc1)C(=O)c1ccc(COc2cc(N)nc3[nH]nnc23)c(Cl)c1` [Example 204, 4-((5-amino-3H-[1,2,3]triazolo[4,5-b]pyridin-7-yloxy)methyl)-N-benzyl-3-chloro-N-methylbenzamide] stands 1 to 100 nM; under `Nc1cc(OCc2ccc(C(=O)NC3CCC3)cc2Cl)c2nn[nH]c2n1` [Example 205, 4-((5-amino-3H-[1,2,3]triazolo[4,5-b]pyridin-7-yloxy)methyl)-3-chloro-N-cyclobutylbenzamide], 1 to 100 nM; under `Nc1cc(OCc2ccc(C(=O)N3CCCCC3c3ccccc3)cc2Cl)c2nn[nH]c2n1` (centres unmarked) [Example 206], 101 to 999 nM.
Under `Cc1cc(CNC(=O)c2ccc(COc3cc(N)nc4[nH]nnc34)c(Cl)c2)n(C)n1` [Example 207, 4-((5-amino-3H-[1,2,3]triazolo[4,5-b]pyridin-7-yloxy)methyl)-3-chloro-N-((1,3-dimethyl-1H-pyrazol-5-yl)methyl)benzamide] stands 1 to 100 nM; under `Nc1cc(OCc2ccc(C(=O)N3CCCC(Oc4ccccc4)C3)cc2Cl)c2nn[nH]c2n1` (centres unmarked) [Example 209], 1 to 100 nM.
Turning to `Nc1cc(OCc2ccc(C(=O)N3CCC(CO)C3)cc2Cl)c2nn[nH]c2n1` (centres unmarked) [Example 210], the IC50 lay within 101 to 999 nM.
Take `CC(=O)N[C@H]1CCN(C(=O)c2ccc(COc3cc(N)nc4[nH]nnc34)c(Cl)c2)C1` [Example 212, (S)-N-(1-(4-((5-amino-3H-[1,2,3]triazolo[4,5-b]pyridin-7-yloxy)methyl)-3-chlorobenzoyl)pyrrolidin-3-yl)acetamide]: the IC50 was 101 to 999 nM.
Regarding `Nc1cc(OCc2ccc(C(=O)Nc3ccccc3)cc2Cl)c2nn[nH]c2n1` [Example 213, 4-((5-amino-3H-[1,2,3]triazolo[4,5-b]pyridin-7-yloxy)methyl)-3-chloro-N-phenylbenzamide], the IC50 lay within 1 to 100 nM.
Under `Nc1cc(OCc2ccc(C(=O)NCc3ccccc3Cl)cc2Cl)c2nn[nH]c2n1` [Example 214, 4-((5-amino-3H-[1,2,3]triazolo[4,5-b]pyridin-7-yloxy)methyl)-3-chloro-N-(2-chlorobenzyl)benzamide] stands 1 to 100 nM; under `COc1ccccc1CNC(=O)c1ccc(COc2cc(N)nc3[nH]nnc23)c(Cl)c1` [Example 215, 4-((5-amino-3H-[1,2,3]triazolo[4,5-b]pyridin-7-yloxy)methyl)-3-chloro-N-(2-methoxybenzyl)benzamide], 1 to 100 nM; under `CNC(=O)CNC(=O)c1ccc(COc2cc(N)nc3[nH]nnc23)c(Cl)c1` [Example 218, 4-((5-amino-3H-[1,2,3]triazolo[4,5-b]pyridin-7-yloxy)methyl)-3-chloro-N-(2-(methylamino)-2-oxoethyl) benzamide], 101 to 999 nM.
`Nc1cc(OCc2ccc(C(=O)NCc3cccnc3)cc2Cl)c2nn[nH]c2n1` [Example 219, 4-((5-amino-3H-[1,2,3]triazolo[4,5-b]pyridin-7-yloxy)methyl)-3-chloro-N-(pyridin-3-ylmethyl)benzamide]: the IC50 lay in the range of 1 to 100 nM.
